Experimental data taken from US12077537B2 (Gilead Sciences, Inc., priority 2020, dated 2024).

Each compound was assayed on HIV-IIIb (assay: Antiviral assay in MT4 cells). Conditions: Human immunodeficiency virus 1, MT4, 120 h; MT-4 cells mixed with HIV-IIIb at m.o.i. 0.003; 5 days at 37° C.; CellTiter-Glo luminescence; 50% decrease in signal, a measure of HIV-1 replication.
Format: cell-based
Description: Antiviral Assay in MT4 Cells For the antiviral assay, 40 μL of a concentration required to achieve a final effective 1× test concentration of 3-fold serially diluted compound in culture medium with 10% FBS was added to each well of a 384-well plate (10 concentrations) in quadruplicate. MT-4 cells were next mixed with HIV-IIIb at an m.o.i of 0.003 for 1 hour, after which time 35 μL of virus/cell mixture (2000 cells) was immediately added to each well containing 40 μL of diluted compound. The plates were then incubated at 37° C. for 5 days. After 5 days of incubation, 25 μl of 2× concentrated CellTiter-Glom Reagent (catalog #G7571, Promega Biosciences, Inc., Madison, WI) was added to each well containing MT-4 cells. Cell lysis was carried out by incubating at room temperature for 10 min and then chemiluminescence was read.
`O=C(Cn1nc(C(F)(F)F)c2c1C(F)(F)[C@@H]1C[C@H]21)N[C@@H](Cc1cc(F)cc(F)c1)c1nc2nc(N3CCN(c4ccc(-c5ncc[nH]5)cc4)CC3)sc2cc1-c1ccc2c(c1)C(=O)NC2` [Compound 34, N—((S)-1-(2-(4-(4-(1H-imidazol-2-yl)phenyl)piperazin-1-yl)-6-(3-oxoisoindolin-5-yl)thiazolo[4,5-b]pyridin-5-yl)-2-(3,5-difluorophenyl)ethyl)-2-((3bS,4aR)-5,5-difluoro-3-(trifluoromethyl)-3b,4,4a,5-tetrahydro-1H-cyclopropa[3,4]cyclopenta[1,2-c]pyrazol-1-yl)acetamide] showed an EC50 of 97.8 nM. For `O=C(Cn1nc(C(F)F)c2c1C1CC1CC2)N[C@@H](Cc1cc(F)cc(F)c1)c1nc2nc(N3CCN(c4ccc(-c5ncc[nH]5)cc4)CC3)sc2cc1-c1ccc2c(c1)C(=O)NC2` (stereo partly drawn) [Compound 35, N—((S)-1-(2-(4-(4-(1H-imidazol-2-yl)phenyl)piperazin-1-yl)-6-(3-oxoisoindolin-5-yl)thiazolo[4,5-b]pyridin-5-yl)-2-(3,5-difluorophenyl)ethyl)-2-(3-(difluoromethyl)-5,5a,6,6a-tetrahydrocyclopropa[g]indazol-1(4H)-yl)acetamide], the EC50 was 31.9 nM. `O=C(Cn1nc(C(F)(F)F)c2c1C(F)(F)[C@@H]1C[C@H]21)N[C@@H](Cc1cc(F)cc(F)c1)c1nc2nc(N3CCN(c4ccncc4)CC3)sc2cc1-c1ccc2c(c1)C(=O)NC2` [Compound 36, 2-((3bS,4aR)-5,5-difluoro-3-(trifluoromethyl)-3b,4,4a,5-tetrahydro-1H-cyclopropa[3,4]cyclopenta[1,2-c]pyrazol-1-yl)-N—((S)-2-(3,5-difluorophenyl)-1-(6-(3-oxoisoindolin-5-yl)-2-(4-(pyridin-4-yl)piperazin-1-yl)thiazolo[4,5-b]pyridin-5-yl)ethyl)acetamide] gave an EC50 of 28.7 nM. `O=C(Cn1nc(C(F)(F)F)c2c1C(F)(F)[C@@H]1C[C@H]21)N[C@H](Cc1cc(F)cc(F)c1)c1nc2nc(N3CCN(c4ccncc4)CC3)sc2cc1-c1ccc2c(c1)C(=O)NC2` [Compound 37, 2-((3bS,4aR)-5,5-difluoro-3-(trifluoromethyl)-3b,4,4a,5-tetrahydro-1H-cyclopropa[3,4]cyclopenta[1,2-c]pyrazol-1-yl)-N—((R)-2-(3,5-difluorophenyl)-1-(6-(3-oxoisoindolin-5-yl)-2-(4-(pyridin-4-yl)piperazin-1-yl)thiazolo[4,5-b]pyridin-5-yl)ethyl)acetamide] was tested, and the EC50 was 1070 nM. With `O=C(Cn1nc(C(F)(F)F)c2c1C(F)(F)[C@@H]1C[C@H]21)N[C@@H](Cc1cc(F)cc(F)c1)c1nc2nc(N3CCN(C4COC4)CC3)sc2cc1-c1ccc2c(c1)C(=O)NC2` [Compound 38, 2-((3bS,4aR)-5,5-difluoro-3-(trifluoromethyl)-3b,4,4a,5-tetrahydro-1H-cyclopropa[3,4]cyclopenta[1,2-c]pyrazol-1-yl)-N—((S)-2-(3,5-difluorophenyl)-1-(2-(4-(oxetan-3-yl)piperazin-1-yl)-6-(3-oxoisoindolin-5-yl)thiazolo[4,5-b]pyridin-5-yl)ethyl)acetamide] the EC50 was 10.1 nM. With `CC1(O)CN(c2nc3nc([C@H](Cc4cc(F)cc(F)c4)NC(=O)Cn4nc(C(F)(F)F)c5c4C(F)(F)[C@@H]4C[C@H]54)c(-c4cccc5c4CNC5=O)cc3s2)C1` [Compound 39, 2-((3bS,4aR)-5,5-difluoro-3-(trifluoromethyl)-3b,4,4a,5-tetrahydro-1H-cyclopropa[3,4]cyclopenta[1,2-c]pyrazol-1-yl)-N—((S)-2-(3,5-difluorophenyl)-1-(2-(3-hydroxy-3-methylazetidin-1-yl)-6-(1-oxoisoindolin-4-yl)thiazolo[4,5-b]pyridin-5-yl)ethyl)acetamide] the EC50 was 14.6 nM. Compound `O=C(Cn1nc(C(F)(F)F)c2c1C(F)(F)[C@@H]1C[C@H]21)N[C@@H](Cc1cc(F)cc(F)c1)c1nc2nc(N3CCN(c4ccncc4)CC3)sc2cc1-c1cccc2c1CNC2=O` [Compound 40, 2-((3bS,4aR)-5,5-difluoro-3-(trifluoromethyl)-3b,4,4a,5-tetrahydro-1H-cyclopropa[3,4]cyclopenta[1,2-c]pyrazol-1-yl)-N—((S)-2-(3,5-difluorophenyl)-1-(6-(1-oxoisoindolin-4-yl)-2-(4-(pyridin-4-yl)piperazin-1-yl)thiazolo[4,5-b]pyridin-5-yl)ethyl)acetamide] has an EC50 of 28.1 nM. `NC(=O)c1cc(-c2cc3sc(N4CCN(c5ccc(-c6ncc[nH]6)cc5)CC4)nc3nc2[C@H](Cc2cc(F)cc(F)c2)NC(=O)Cn2nc(C(F)F)c3c2C2CC2CC3)ccc1F` (stereo partly drawn) [Compound 41, 5-(2-(4-(4-(1H-imidazol-2-yl)phenyl)piperazin-1-yl)-5-((1S)-1-(2-(3-(difluoromethyl)-5,5a,6,6a-tetrahydrocyclopropa[g]indazol-1(4H)-yl)acetamido)-2-(3,5-difluorophenyl)ethyl)thiazolo[4,5-b]pyridin-6-yl)-2-fluorobenzamide] gave an EC50 of 98.1 nM. Compound `O=C(Cn1nc(C(F)(F)F)c2c1C(F)(F)[C@@H]1C[C@H]21)N[C@@H](Cc1cc(F)cc(F)c1)c1nc2nc(N3CCN(c4ccncc4)CC3)sc2cc1-c1ccc2c(c1)C(=O)NC21CC1` [Compound 42, 2-((3bS,4aR)-5,5-difluoro-3-(trifluoromethyl)-3b,4,4a,5-tetrahydro-1H-cyclopropa[3,4]cyclopenta[1,2-c]pyrazol-1-yl)-N—((S)-2-(3,5-difluorophenyl)-1-(6-(3′-oxospiro[cyclopropane-1,1′-isoindolin]-5′-yl)-2-(4-(pyridin-4-yl)piperazin-1-yl)thiazolo[4,5-b]pyridin-5-yl)ethyl)acetamide] has an EC50 of 87.2 nM. With `CC1(O)CN(c2nc3nc([C@H](Cc4cc(F)cc(F)c4)NC(=O)Cn4nc(C(F)(F)F)c5c4C(F)(F)[C@@H]4C[C@H]54)c(-c4ccc5c(c4)C(=O)NC54CC4)cc3s2)C1` [Compound 43, 2-((3bS,4aR)-5,5-difluoro-3-(trifluoromethyl)-3b,4,4a,5-tetrahydro-1H-cyclopropa[3,4]cyclopenta[1,2-c]pyrazol-1-yl)-N—((S)-2-(3,5-difluorophenyl)-1-(2-(3-hydroxy-3-methylazetidin-1-yl)-6-(3′-oxospiro[cyclopropane-1,1′-isoindolin]-5′-yl)thiazolo[4,5-b]pyridin-5-yl)ethyl)acetamide] the EC50 was 22.5 nM. For `O=C(Cn1nc(C(F)(F)F)c2c1C(F)(F)[C@@H]1C[C@H]21)N[C@@H](Cc1cc(F)cc(F)c1)c1nc2nc(N3CCN(c4nc5ccccc5[nH]4)CC3)sc2cc1-c1ccc2c(c1)C(=O)NC21CC1` [Compound 44, N—((S)-1-(2-(4-(1H-benzo[d]imidazol-2-yl)piperazin-1-yl)-6-(3′ oxospiro[cyclopropane-1,1′-isoindolin]-5′-yl)thiazolo[4,5-b]pyridin-5-yl)-2-(3,5-difluorophenyl)ethyl)-2-((3bS,4aR)-5,5-difluoro-3-(trifluoromethyl)-3b,4,4a,5-tetrahydro-1H-cyclopropa[3,4]cyclopenta[1,2-c]pyrazol-1-yl)acetamide], the EC50 was 89.1 nM. `NC(=O)c1cc(-c2cc3sc(N4CCN(c5nc6ccccc6[nH]5)CC4)nc3nc2[C@H](Cc2cc(F)cc(F)c2)NC(=O)Cn2nc(C(F)(F)F)c3c2C(F)(F)[C@@H]2C[C@H]32)ccc1F` [Compound 45, 5-(2-(4-(1H-benzo[d]imidazol-2-yl)piperazin-1-yl)-5-((S)-1-(2-((3bS,4aR)-5,5-difluoro-3-(trifluoromethyl)-3b,4,4a,5-tetrahydro-1H-cyclopropa[3,4]cyclopenta[1,2-c]pyrazol-1-yl)acetamido)-2-(3,5-difluorophenyl)ethyl)thiazolo[4,5-b]pyridin-6-yl)-2-fluorobenzamide] showed an EC50 of 144 nM. `NC(=O)c1cc(-c2cc3sc(N4CCN(c5nc6ccccc6[nH]5)CC4)nc3nc2[C@H](Cc2cc(F)cc(F)c2)NC(=O)Cn2nc(C(F)F)c3c2C2CC2CC3)ccc1F` (stereo partly drawn) [Compound 46, 5-(2-(4-(1H-benzo[d]imidazol-2-yl)piperazin-1-yl)-5-((1S)-1-(2-(3-(difluoromethyl)-5,5a,6,6a-tetrahydrocyclopropa[g]indazol-1(4H)-yl)acetamido)-2-(3,5-difluorophenyl)ethyl)thiazolo[4,5-b]pyridin-6-yl)-2-fluorobenzamide] was tested, and the EC50 was 85.2 nM. `NC(=O)c1cc(-c2cc3sc(N4CCN(c5ccncc5)CC4)nc3nc2[C@H](Cc2cc(F)cc(F)c2)NC(=O)Cn2nc(C(F)F)c3c2C2CC2CC3)ccc1F` (stereo partly shown) [Compound 47] showed an EC50 of 29.3 nM. Work on `CC1(O)CN(c2nc3nc([C@H](Cc4cc(F)cc(F)c4)NC(=O)Cn4nc(C(F)(F)F)c5c4C(F)(F)[C@@H]4C[C@H]54)c(-c4ccc5n[nH]c(=O)n5c4)cc3s2)C1` [Compound 48, 2-((3bS,4aR)-5,5-difluoro-3-(trifluoromethyl)-3b,4,4a,5-tetrahydro-1H-cyclopropa[3,4]cyclopenta[1,2-c]pyrazol-1-yl)-N—((S)-2-(3,5-difluorophenyl)-1-(2-(3-hydroxy-3-methylazetidin-1-yl)-6-(3-oxo-2,3-dihydro-[1,2,4]triazolo[4,3-a]pyridin-6-yl)thiazolo[4,5-b]pyridin-5-yl)ethyl)acetamide] yielded an EC50 of 249 nM. `Cc1c(-c2cc3sc(N4CC(C)(O)C4)nc3nc2[C@H](Cc2cc(F)cc(F)c2)NC(=O)Cn2nc(C(F)(F)F)c3c2C(F)(F)[C@@H]2C[C@H]32)ccc2n[nH]c(=O)n12` [Compound 49, 2-((3bS,4aR)-5,5-difluoro-3-(trifluoromethyl)-3b,4,4a,5-tetrahydro-1H-cyclopropa[3,4]cyclopenta[1,2-c]pyrazol-1-yl)-N—((S)-2-(3,5-difluorophenyl)-1-(2-(3-hydroxy-3-methylazetidin-1-yl)-6-(5-methyl-3-oxo-2,3-dihydro-[1,2,4]triazolo[4,3-a]pyridin-6-yl)thiazolo[4,5-b]pyridin-5-yl)ethyl)acetamide] showed an EC50 of 31.7 nM.
